Measured values published in patent US6710049B2, “Azole compounds as anti-fungal agents” (Ranbaxy Laboratories Limited, priority 2000, dated 2004).
In brackets after ≈: the same amount, converted by molar mass.

Experiments:
[1] = tested on: A niger P1 - 1046; assay: MFC determination (subculture on Sabouraud Dextrose Agar); format: cell-based; settings: read-out: Minimum Fungicidal Concentration (MFC)
Source text: (§1) The in-vitro evaluation of the antifungal activity of the compounds can be performed by determining the minimum inhibitory concentration (MIC) as shown in Table 1 which is the concentration of the test compound in Rosewell Park Memorial Institute (RPMI) 1640 liquid medium buffered with 3-(Morpholino)propanesulphonic acid (MOPS) to pH 7, at which there is significant inhibition of the particular fungi. In practice the National Committee for Clinical Laboratory Standard (NCCLS) M27A document for Candida and Cryptococcus and M38P for Aspergillus was used to determine the MIC against yeast and filamentous fungi with suitable modifications for dermatophytes to other filamentous fungi. Three quality control strains were included each time the MIC were determined and readings recorded only when the Quality Control results fell into the acceptable range. After MIC results had been recorded, 100 μl from each of the well showing no growth was spread over Sabouraud Dextrose Agar (SDA) to determine the minimum fungicidal concentration (MFC) as shown in Table 2.

[2] = tested on: A flavus P2 - 1045; assay: as above; format: cell-based; settings: read-out: Minimum Fungicidal Concentration (MFC)
Source text: as §1

[3] = tested on: Penicillium 2306; assay: as above; format: cell-based; settings: read-out: Minimum Fungicidal Concentration (MFC)
Source text: as §1

[4] = tested on: Penicillium 191; assay: as above; format: cell-based; settings: read-out: Minimum Fungicidal Concentration (MFC)
Source text: as §1

[5] = tested on: A flavus E4 - 1042; assay: as above; format: cell-based; settings: read-out: Minimum Fungicidal Concentration (MFC)
Source text: as §1

[6] = tested on: Alternaria 1051; assay: as above; format: cell-based; settings: read-out: Minimum Fungicidal Concentration (MFC)
Source text: as §1

[7] = tested on: Mucor (Ceylon); assay: as above; format: cell-based; settings: read-out: Minimum Fungicidal Concentration (MFC)
Source text: as §1

[8] = tested on: Penicillium H - 1048; assay: as above; format: cell-based; settings: H1048, read-out: Minimum Fungicidal Concentration (MFC)
Source text: as §1

[9] = tested on: Penicillium 2548; assay: as above; format: cell-based; settings: read-out: Minimum Fungicidal Concentration (MFC)
Source text: as §1

[10] = tested on: Rhizopus (Ceylon); assay: as above; format: cell-based; settings: read-out: Minimum Fungicidal Concentration (MFC)
Source text: as §1

[11] = tested on: Penicillium 31620; assay: as above; format: cell-based; settings: read-out: Minimum Fungicidal Concentration (MFC)
Source text: as §1

[12] = tested on: C parapsilosis 22019; assay: as above; format: cell-based; settings: read-out: Minimum Fungicidal Concentration (MFC)
Source text: as §1

[13] = tested on: Penicillium I - 1049; assay: as above; format: cell-based; settings: I1049, read-out: Minimum Fungicidal Concentration (MFC)
Source text: as §1

[14] = tested on: Penicillium 1641; assay: as above; format: cell-based; settings: read-out: Minimum Fungicidal Concentration (MFC)
Source text: as §1

[15] = tested on: Fusarium (Ceylon); assay: as above; format: cell-based; settings: read-out: Minimum Fungicidal Concentration (MFC)
Source text: as §1

[16] = tested on: A niger E5 - 1047; assay: as above; format: cell-based; settings: read-out: Minimum Fungicidal Concentration (MFC)
Source text: as §1

[17] = tested on: Rhizopus 1052; assay: as above; format: cell-based; settings: read-out: Minimum Fungicidal Concentration (MFC)
Source text: as §1

[18] = tested on: Fusarium 29600; assay: as above; format: cell-based; settings: Fusarium, 29600, read-out: Minimum Fungicidal Concentration (MFC)
Source text: as §1

[19] = tested on: C krusei 6258; assay: as above; format: cell-based; settings: read-out: Minimum Fungicidal Concentration (MFC)
Source text: as §1

[20] = tested on: Fusarium 18270; assay: as above; format: cell-based; settings: Fusarium, 18270, read-out: Minimum Fungicidal Concentration (MFC)
Source text: as §1

[21] = tested on: A flavus E3 - 1044; assay: as above; format: cell-based; settings: read-out: Minimum Fungicidal Concentration (MFC)
Source text: as §1

[22] = tested on: A flavus P3 - 1041; assay: as above; format: cell-based; settings: read-out: Minimum Fungicidal Concentration (MFC)
Source text: as §1

[23] = tested on: A fumigatus 1008; assay: MIC determination (NCCLS broth method); format: cell-based, Aspergillus fumigatus; settings: Aspergillus fumigatus, read-out: Minimum Inhibitory Concentration (MIC)
Source text: as §1

[24] = tested on: A fumigatus J - 1032; assay: MIC determination (NCCLS broth method); format: cell-based, Aspergillus fumigatus; settings: Aspergillus fumigatus, J1032, read-out: Minimum Inhibitory Concentration (MIC)
Source text: as §1

[25] = tested on: A fumigatus I - 1011; assay: MIC determination (NCCLS broth method); format: cell-based, Aspergillus fumigatus; settings: Aspergillus fumigatus, I1011, read-out: Minimum Inhibitory Concentration (MIC)
Source text: as §1

[26] = tested on: A fumigatus K - 1033; assay: MIC determination (NCCLS broth method); format: cell-based, Aspergillus fumigatus; settings: Aspergillus fumigatus, K1033, read-out: Minimum Inhibitory Concentration (MIC)
Source text: as §1

[27] = tested on: A fumigatus L - 1034; assay: MIC determination (NCCLS broth method); format: cell-based, Aspergillus fumigatus; settings: Aspergillus fumigatus, L1034, read-out: Minimum Inhibitory Concentration (MIC)
Source text: as §1

[28] = tested on: A fumigatus PGI - 1023; assay: MIC determination (NCCLS broth method); format: cell-based, Aspergillus fumigatus; settings: Aspergillus fumigatus, PGI1023, read-out: Minimum Inhibitory Concentration (MIC)
Source text: as §1

[29] = tested on: A fumigatus II - 1012; assay: MIC determination (NCCLS broth method); format: cell-based, Aspergillus fumigatus; settings: Aspergillus fumigatus, II1012, read-out: Minimum Inhibitory Concentration (MIC)
Source text: as §1

[30] = tested on: A fumigatus SI-1 - 1019; assay: MIC determination (NCCLS broth method); format: cell-based, Aspergillus fumigatus; settings: Aspergillus fumigatus, SI11019, read-out: Minimum Inhibitory Concentration (MIC)
Source text: as §1

[31] = tested on: P variotii 22319; assay: MIC determination (NCCLS broth method); format: cell-based, Paecillomyces variotii; settings: read-out: Minimum Inhibitory Concentration (MIC)
Source text: as §1

[32] = tested on: C neoformans I; assay: MIC determination (NCCLS broth method); format: cell-based, Cryptococcus neoformans; settings: Cryptococcus neoformans, read-out: Minimum Inhibitory Concentration (MIC)
Source text: as §1

[33] = tested on: C neoformans M-106; assay: MIC determination (NCCLS broth method); format: cell-based, Cryptococcus neoformans; settings: Cryptococcus neoformans, M106, read-out: Minimum Inhibitory Concentration (MIC)
Source text: as §1

[34] = tested on: C albicans A-26; assay: MIC determination (NCCLS broth method); format: cell-based, Candida albicans; settings: Candida albicans, A26, read-out: Minimum Inhibitory Concentration (MIC)
Source text: as §1

[35] = tested on: C albicans Y01.19; assay: MIC determination (NCCLS broth method); format: cell-based, Candida albicans; settings: Candida albicans, read-out: Minimum Inhibitory Concentration (MIC)
Source text: as §1

[36] = tested on: A fumigatus 1008; assay: MFC determination (subculture on Sabouraud Dextrose Agar); format: cell-based, Aspergillus fumigatus; settings: Aspergillus fumigatus, read-out: Minimum Fungicidal Concentration (MFC)
Source text: as §1

[37] = tested on: A fumigatus SI-1 - 1019; assay: as above; format: cell-based, Aspergillus fumigatus; settings: Aspergillus fumigatus, SI11019, read-out: Minimum Fungicidal Concentration (MFC)
Source text: as §1

[38] = tested on: Penicillium 191; assay: MIC determination (NCCLS broth method); format: cell-based; settings: read-out: Minimum Inhibitory Concentration (MIC)
Source text: as §1

[39] = tested on: A flavus E4 - 1042; assay: MIC determination (NCCLS broth method); format: cell-based; settings: read-out: Minimum Inhibitory Concentration (MIC)
Source text: as §1

[40] = tested on: C tropicalis 750; assay: MIC determination (NCCLS broth method); format: cell-based; settings: read-out: Minimum Inhibitory Concentration (MIC)
Source text: as §1

[41] = tested on: C glabrata 90030; assay: MIC determination (NCCLS broth method); format: cell-based; settings: read-out: Minimum Inhibitory Concentration (MIC)
Source text: as §1

[42] = tested on: Penicillium 1641; assay: MIC determination (NCCLS broth method); format: cell-based; settings: read-out: Minimum Inhibitory Concentration (MIC)
Source text: as §1

[43] = tested on: A niger E5 - 1047; assay: MIC determination (NCCLS broth method); format: cell-based; settings: read-out: Minimum Inhibitory Concentration (MIC)
Source text: as §1

[44] = tested on: Rhizopus 1052; assay: MIC determination (NCCLS broth method); format: cell-based; settings: read-out: Minimum Inhibitory Concentration (MIC)
Source text: as §1

[45] = tested on: P variotii 22319; assay: MFC determination (subculture on Sabouraud Dextrose Agar); format: cell-based, Paecillomyces variotii; settings: read-out: Minimum Fungicidal Concentration (MFC)
Source text: as §1

OC(Cn1cncn1)(Cn1cncn1)c1ccc(F)cc1F [Fluconazole]
MFC [1]: > 128 mg/L | MFC [2]: > 128 mg/L | MFC [3]: > 128 mg/L | MFC [4]: > 128 mg/L | MFC [5]: > 128 mg/L | MFC [6]: > 128 mg/L | MFC [7]: > 128 mg/L | MFC [8]: > 128 mg/L | MFC [9]: > 128 mg/L | MFC [10]: > 128 mg/L | MFC [11]: > 128 mg/L | MFC [12]: 4 mg/L (≈ 13.1 µM) | MFC [13]: > 128 mg/L | MFC [14]: > 128 mg/L | MFC [15]: > 128 mg/L | MFC [16]: > 128 mg/L | MFC [17]: > 128 mg/L | MFC [18]: > 128 mg/L | MFC [19]: 128 mg/L (≈ 418 µM) | MFC [20]: > 128 mg/L | MFC [21]: > 128 mg/L | MFC [22]: > 128 mg/L | MIC [23]: > 128 mg/L | MIC [24]: > 128 mg/L | MIC [25]: > 128 mg/L | MIC [26]: > 128 mg/L | MIC [27]: > 128 mg/L | MIC [28]: > 128 mg/L | MIC [29]: > 128 mg/L | MIC [30]: > 128 mg/L | MIC [31]: > 128 mg/L | MIC [32]: 1 mg/L (≈ 3.27 µM) | MIC [33]: 4 mg/L (≈ 13.1 µM) | MIC [34]: 0.5 mg/L (≈ 1.63 µM) | MIC [35]: 8 mg/L (≈ 26.1 µM) | MFC [36]: > 128 mg/L | MFC [37]: > 128 mg/L | MIC [38]: 64 mg/L (≈ 209 µM) | MIC [39]: > 128 mg/L | MIC [40]: 0.5 mg/L (≈ 1.63 µM) | MIC [41]: 4 mg/L (≈ 13.1 µM) | MIC [42]: 64 mg/L (≈ 209 µM) | MIC [43]: > 128 mg/L | MIC [44]: > 128 mg/L | MFC [45]: > 128 mg/L

CCC(C)n1ncn(-c2ccc(N3CCN(c4ccc(OCC5COC(Cn6cncn6)(c6ccc(Cl)cc6Cl)O5)cc4)CC3)cc2)c1=O (stereo not drawn) [Itraconazole]
MFC [1]: 0.25 mg/L (≈ 0.354 µM) | MFC [2]: 0.25 mg/L (≈ 0.354 µM) | MFC [3]: 16 mg/L (≈ 22.7 µM) | MFC [4]: 0.06 mg/L (≈ 0.085 µM) | MFC [5]: 0.125 mg/L (≈ 0.177 µM) | MFC [6]: 32 mg/L (≈ 45.3 µM) | MFC [7]: > 128 mg/L | MFC [8]: > 128 mg/L | MFC [9]: 0.06 mg/L (≈ 0.085 µM) | MFC [10]: 128 mg/L (≈ 181 µM) | MFC [11]: 1 mg/L (≈ 1.42 µM) | MFC [12]: 8 mg/L (≈ 11.3 µM) | MFC [13]: > 128 mg/L | MFC [14]: 0.06 mg/L (≈ 0.085 µM) | MFC [15]: > 128 mg/L | MFC [16]: 0.125 mg/L (≈ 0.177 µM) | MFC [17]: 8 mg/L (≈ 11.3 µM) | MFC [18]: > 128 mg/L | MFC [19]: 64 mg/L (≈ 90.7 µM) | MFC [20]: 128 mg/L (≈ 181 µM) | MFC [21]: 0.03 mg/L (≈ 0.0425 µM) | MFC [22]: 0.06 mg/L (≈ 0.085 µM) | MIC [23]: 0.06 mg/L (≈ 0.085 µM) | MIC [24]: 0.03 mg/L (≈ 0.0425 µM) | MIC [25]: 0.06 mg/L (≈ 0.085 µM) | MIC [26]: 0.06 mg/L (≈ 0.085 µM) | MIC [27]: 0.06 mg/L (≈ 0.085 µM) | MIC [28]: 0.03 mg/L (≈ 0.0425 µM) | MIC [29]: 0.06 mg/L (≈ 0.085 µM) | MIC [30]: 0.03 mg/L (≈ 0.0425 µM) | MIC [31]: 0.016 mg/L (≈ 0.0227 µM) | MIC [32]: 0.03 mg/L (≈ 0.0425 µM) | MIC [33]: 0.03 mg/L (≈ 0.0425 µM) | MIC [34]: 0.016 mg/L (≈ 0.0227 µM) | MIC [35]: 0.25 mg/L (≈ 0.354 µM) | MFC [36]: 0.06 mg/L (≈ 0.085 µM) | MFC [37]: 0.25 mg/L (≈ 0.354 µM) | MIC [38]: 0.06 mg/L (≈ 0.085 µM) | MIC [39]: 0.06 mg/L (≈ 0.085 µM) | MIC [40]: 0.016 mg/L (≈ 0.0227 µM) | MIC [41]: 0.5 mg/L (≈ 0.709 µM) | MIC [42]: 0.25 mg/L (≈ 0.354 µM) | MIC [43]: 0.03 mg/L (≈ 0.0425 µM) | MIC [44]: 16 mg/L (≈ 22.7 µM) | MFC [45]: 0.06 mg/L (≈ 0.085 µM)
